Measurements as given in US7179597B2, “Genetic diagnosis for QT prolongation related adverse drug reactions” (Georgetown University, priority 2000, dated 2007).
Entries after “also recorded” stand apart in the source; their conditions may differ. Read-outs that look alike come from different tables or passages of the source.

What was measured:
[1] = cited from earlier work
[2] = cited from earlier work; remark: listed apart in the source
[3] = system: CYP3A; settings: Table 3; cited from earlier work
[4] = biological target: CYP2C19 (Homo sapiens, UniProt P33261); settings: Table 3; cited from earlier work
[5] = biological target: CYP2D6 (Homo sapiens, UniProt P10635); settings: Table 3; cited from earlier work
[6] = system: healthy volunteers; assay: ECG QTc assessment after ibutilide infusion in healthy volunteers; format: in vivo, human
Description: ECG analysis is one method of assessing arrhythmias, such as prolonged QT intervals. Ibutilide or any other pharmaceutical agent to be studied, can be assessed using an ECG. […] All ECGs were 12 lead and were recorded on a computer disc and on paper at a speed of 50 mm/sec, with the subject in a stationary, resting, supine position.

[7] = Table 2, FDA / medical literature

Sequence of CYP2D6 (P10635 whole entry, the tested form may be a part): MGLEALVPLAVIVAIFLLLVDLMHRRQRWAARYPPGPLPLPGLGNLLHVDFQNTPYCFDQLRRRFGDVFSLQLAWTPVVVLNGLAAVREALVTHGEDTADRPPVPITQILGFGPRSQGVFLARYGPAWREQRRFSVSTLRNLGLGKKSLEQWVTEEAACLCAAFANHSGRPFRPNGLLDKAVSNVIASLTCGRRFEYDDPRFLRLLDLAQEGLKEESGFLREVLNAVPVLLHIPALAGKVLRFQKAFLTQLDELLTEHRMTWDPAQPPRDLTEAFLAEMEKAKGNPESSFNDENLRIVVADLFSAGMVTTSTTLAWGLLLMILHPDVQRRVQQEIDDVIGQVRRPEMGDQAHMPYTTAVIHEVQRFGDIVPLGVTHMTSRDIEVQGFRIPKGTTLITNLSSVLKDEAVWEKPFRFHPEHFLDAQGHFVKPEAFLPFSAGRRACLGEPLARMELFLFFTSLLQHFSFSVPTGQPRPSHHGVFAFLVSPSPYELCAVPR
Sequence of CYP2C19 (P33261 whole entry): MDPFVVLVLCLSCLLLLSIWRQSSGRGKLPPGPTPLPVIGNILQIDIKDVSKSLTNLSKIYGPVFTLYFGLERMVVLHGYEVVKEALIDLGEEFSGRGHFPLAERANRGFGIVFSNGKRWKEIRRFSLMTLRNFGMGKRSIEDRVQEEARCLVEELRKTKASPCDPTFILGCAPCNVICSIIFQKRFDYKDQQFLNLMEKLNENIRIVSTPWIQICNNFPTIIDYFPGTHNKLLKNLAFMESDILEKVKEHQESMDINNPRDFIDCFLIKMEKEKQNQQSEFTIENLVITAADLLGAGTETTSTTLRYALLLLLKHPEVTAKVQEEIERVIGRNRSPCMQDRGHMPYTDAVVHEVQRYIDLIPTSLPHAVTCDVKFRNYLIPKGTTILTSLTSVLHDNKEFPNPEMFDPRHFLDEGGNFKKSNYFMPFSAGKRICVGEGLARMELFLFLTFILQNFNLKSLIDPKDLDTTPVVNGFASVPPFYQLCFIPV

SMILES	TdP [1, 7]	QT ([2]; Table 2, drug labeling)	also measured
N=C(N)c1ccc(OCCCCCOc2ccc(C(=N)N)cc2)cc1 [Pentamidine]	Yes	–	–
CN(C)CCc1c[nH]c2ccc(C[C@H]3COC(=O)N3)cc12 [Zolmitriptan]	–	Yes	–
COc1ccc(CCN2CCC(Nc3nc4ccccc4n3Cc3ccc(F)cc3)CC2)cc1 [Astemizole]	Yes	Yes	QT ([2]; Table 3): Yes; TdP ([1]; Table 3): Yes; Interactions: cytochrome P-450 isoform 3A, substrate or inhibitor [3]: Substrate
C=C[C@H]1C[N@@]2CC[C@H]1C[C@@H]2[C@@H](O)c1ccnc2ccc(OC)cc12 [Quinidine]	Yes	Yes	QT ([2]; Table 3): Yes; TdP ([1]; Table 3): Yes; Interactions: cytochrome P-450 isoform 3A, substrate or inhibitor [3]: Substrate
CN1CCN(CCCN2c3ccccc3Sc3ccc(C(F)(F)F)cc32)CC1 [Trifluoperazine]	Yes	Yes	–
OCCN1CCN(CCCN2c3ccccc3Sc3ccc(Cl)cc32)CC1 [Perphenazine]	–	Yes	–
CN(C)CCC=C1c2ccccc2COc2ccccc21 [Doxepin]	Yes	Yes	–
O=C(O)P(=O)(O)O [Foscarnet]	–	Yes	–
CNS(=O)(=O)CCc1ccc2[nH]cc(C3CCN(C)CC3)c2c1 [Naratriptan]	–	Yes	–
NC(=O)OCC(COC(N)=O)c1ccccc1 [Felbamate]	Yes	Yes?	QT ([2]; Table 3): Yes; TdP ([1]; Table 3): Yes; Interactions: cytochrome P-450 isoform 2C19, substrate or inhibitor [4]: Inhibitor
COc1cc(N)c(Cl)cc1C(=O)NC1CCN(CCCOc2ccc(F)cc2)CC1OC (stereo not shown) [Cisapride]	Yes	Yes	QT ([2]; Table 3): Yes; TdP ([1]; Table 3): Yes; Interactions: cytochrome P-450 isoform 3A, substrate or inhibitor [3]: Substrate
CN(C)CCCN1c2ccccc2Sc2ccc(Cl)cc21 [Chlorpromazine]	Yes	Yes	–
C[C@@H]1CN(c2c(F)c(N)c3c(=O)c(C(=O)O)cn(C4CC4)c3c2F)C[C@H](C)N1 [Sparfloxacin]	Yes	Yes	–
OCCOCCN1CCN(C2=Nc3ccccc3Sc3ccccc32)CC1 [Quetiapine]	–	Yes	–
CC(C)N(CCC(C(N)=O)(c1ccccc1)c1ccccn1)C(C)C (stereo not shown) [Disopyramide]	Yes	Yes	–
CC[C@H]1OC(=O)[C@H](C)[C@@H](O[C@H]2C[C@@](C)(OC)[C@@H](O)[C@H](C)O2)[C@H](C)[C@@H](O[C@@H]2O[C@H](C)C[C@H](N(C)C)[C@H]2O)[C@](C)(O)C[C@@H](C)C(=O)[C@H](C)[C@@H](O)[C@]1(C)O [Erythromycin]	–	Yes	QT ([2]; Table 3): Yes
O=C(NCC1CCCCN1)c1cc(OCC(F)(F)F)ccc1OCC(F)(F)F (stereo not shown) [Flecainide]	–	Yes	QT ([2]; Table 3): Yes; Interactions: cytochrome P-450 isoform 2D6, substrate or inhibitor [5]: Substrate
CNCCC=C1c2ccccc2CCc2ccccc21 [Nortriptyline]	–	Yes	–
CN1CCCC(n2nc(Cc3ccc(Cl)cc3)c3ccccc3c2=O)CC1 (stereo not shown) [Azelastine]	–	Yes	–
CCC(C)n1ncn(-c2ccc(N3CCN(c4ccc(OCC5COC(Cn6cncn6)(c6ccc(Cl)cc6Cl)O5)cc4)CC3)cc2)c1=O (stereo not shown) [Itraconazole]	–	–	Interactions: cytochrome P-450 isoform 3A, substrate or inhibitor [3]: Inhibitor
CCCCc1oc2ccccc2c1C(=O)c1cc(I)c(OCCN(CC)CC)c(I)c1 [Amiodarone]	Yes	–	TdP ([1]; Table 3): Yes
CNCCCN1c2ccccc2CCc2ccccc21 [Desipramine]	–	Yes	QT ([2]; Table 3): Yes; Interactions: cytochrome P-450 isoform 2D6, substrate or inhibitor [5]: Substrate
CC(C)COCC(CN(Cc1ccccc1)c1ccccc1)N1CCCC1 (stereo not shown) [Bepridil]	Yes	Yes	–
COC(=O)C1=C(C)NC(C)=C(C(=O)OCCN(C)Cc2ccccc2)C1c1cccc([N+](=O)[O-])c1 (stereo not shown) [Nicardipine]	–	Yes	–
COC(=O)C1=C(C)NC(C)=C(C(=O)OC(C)C)C1c1cccc2nonc12 (stereo not shown) [Isradipine]	–	Yes	–

SMILES	TdP [1, 7]	QT ([2]; Table 2, drug labeling)	also measured
CNCCCC12CCC(c3ccccc31)c1ccccc12 [Maprotiline]	Yes	Yes	–
CCCCCCCN(CC)CCCC(O)c1ccc(NS(C)(=O)=O)cc1 (stereo not shown) [Ibutilide]	Yes	Yes	Duration of QTc prolonging effect ([6]; 0.003 mg/kg intravenous single dose): almost dissipated by the end of two hours; Mean QTc prolongation over time (AUC, 60 minutes after infusion) ([6]; men versus women by menstrual phase, p<0.05): significantly smaller in men than in women; also recorded: significantly lower for women during the luteal phase and for men; Maximal change in QTc interval after infusion ([6]; men, 0.003 mg/kg intravenous single dose): 54 ± 28 ms; Maximal change in QTc interval after infusion ([6]; women, luteal phase, 0.003 mg/kg intravenous single dose): 53 ± 14 ms; Maximal change in QTc interval after infusion ([6]; women, menstrual phase, 0.003 mg/kg intravenous single dose): 63 ± 13 ms; Maximal change in QTc interval after infusion ([6]; women, ovulation phase, 0.003 mg/kg intravenous single dose): 59 ± 17 ms
CCOC(=O)Nc1ccc2c(c1)N(C(=O)CCN1CCOCC1)c1ccccc1S2 [Moricizine]	Yes	–	–
Clc1ccc2c(c1)C(N1CCNCC1)=Nc1ccccc1O2 [Amoxapine]	–	Yes	–
CCCCN(CCCC)CCC(O)c1cc2c(Cl)cc(Cl)cc2c2cc(C(F)(F)F)ccc12 (stereo not shown) [Halofantrine]	–	Yes	QT ([2]; Table 3): Yes; Interactions: cytochrome P-450 isoform 2D6, substrate or inhibitor [5]: Inhibitor
CN(C)CCCN1c2ccccc2CCc2ccccc21 [Imipramine]	–	Yes	QT ([2]; Table 3): Yes
CC1Cc2ccccc2N1NC(=O)c1ccc(Cl)c(S(N)(=O)=O)c1 (stereo not shown) [Indapamide]	Maybe—	Yes	–
OCCN1CCN(CCCN2c3ccccc3Sc3ccc(C(F)(F)F)cc32)CC1 [Fluphenazine]	Yes	Yes	QT ([2]; Table 3): Yes; TdP ([1]; Table 3): Yes
CNS(=O)(=O)Cc1ccc2[nH]cc(CCN(C)C)c2c1 [Sumatriptan]	–	Yes	–
Clc1ccc2nsnc2c1NC1=NCCN1 [Tizanidine]	–	Yes	–
CC(C)NCC(O)c1ccc(NS(C)(=O)=O)cc1 (stereo not shown) [Sotalol]	–	Yes	–
COc1ccc(C(CN(C)C)C2(O)CCCCC2)cc1 (stereo not shown) [Venlafaxine]	–	Yes	QT ([2]; Table 3): Yes; Interactions: cytochrome P-450 isoform 2D6, substrate or inhibitor [5]: Substrate
CC(=O)N1CCN(c2ccc(OCC3COC(Cn4ccnc4)(c4ccc(Cl)cc4Cl)O3)cc2)CC1 (stereo not shown) [Ketoconazole]	–	–	Interactions: cytochrome P-450 isoform 3A, substrate or inhibitor [3]: Inhibitor; Interactions: cytochrome P-450 isoform 2C19, substrate or inhibitor [4]: Inhibitor
CNCCCC1c2ccccc2C=Cc2ccccc21 [Protriptyline]	–	Yes	QT ([2]; Table 3): Yes
Cc1cccc(C)c1NC(=O)C(C)N (stereo not shown) [Tocainide]	–	Yes	–
CCN(CC)CCNC(=O)c1ccc(N)cc1 [Procainamide]	–	Yes	–
O=C1NC(c2ccccc2)(c2ccccc2)C(=O)N1COP(=O)(O)O [Fosphenytoin]	–	Yes	–
C[C@]12CCC(=O)C=C1CC[C@H]1[C@@H]3CC[C@](O)(C(=O)CO)[C@@]3(C)C[C@H](O)[C@@]12F [Fludrocortisone]	–	Yes	–
Cc1nc2n(c(=O)c1CCN1CCC(c3noc4cc(F)ccc34)CC1)CCCC2 [Risperidone]	Yes	Yes	QT ([2]; Table 3): Yes; TdP ([1]; Table 3): Yes
CN1CCN(CC/C=C2/c3ccccc3Sc3ccc(S(=O)(=O)N(C)C)cc32)CC1 [Thiothixene]	Yes	Yes	–
CN1CCC[C@@H]1CCO[C@](C)(c1ccccc1)c1ccc(Cl)cc1 [Clemastine]	Maybe—	–	TdP ([1]; Table 3): Maybe—
CC[C@H]1OC(=O)[C@H](C)[C@@H](O[C@H]2C[C@@](C)(OC)[C@@H](O)[C@H](C)O2)[C@H](C)[C@@H](O[C@@H]2O[C@H](C)C[C@H](N(C)C)[C@H]2O)[C@](C)(OC)C[C@@H](C)C(=O)[C@H](C)[C@@H](O)[C@]1(C)O [Clarithromycin]	–	Yes	QT ([2]; Table 3): Yes
OCc1cc(C(O)CNCCCCCCOCCCCc2ccccc2)ccc1O (stereo not shown) [Salmeterol]	–	Yes	–
O=c1[nH]c2ccccc2n1C1CCN(CCCC(c2ccc(F)cc2)c2ccc(F)cc2)CC1 [Pimozide]	Yes	Yes	–
